Laboratory results: patent EP0455432A1, “Alpha-glycosyl naringin, and its preparation and uses” (KABUSHIKI KAISHA HAYASHIBARA SEIBUTSU KAGAKU KENKYUJO, priority 1990, dated 1991)

Tested on: α-glucosidase (EC 3.2.1.20) derived from pig liver

## α-Glucosyl naringin
  hydrolysis by α-glucosidase: hydrolyzed α-glucosyl naringin into naringin and D-glucose
